# Results taken from paper PMC12596731, “Cys–Lys stapling for unprotected peptides via tunable linkers” (National Science Review, 2025).
# Legend:
# [1] = system: human bladder cancer cells; assay type: cell-based; conditions: 48 h
# Method: XI. Biological Experiments
# Cell Counting Kit (CCK-8) was used to evaluate the proliferation inhibition activity of the compounds, and the half inhibitory concentration IC50 value was determined by single-concentration primary screening and multi-concentration.
# Fetal Bovine Serum (FBS) 04-001-1acs, Biological industries; PBS phosphate buffer (PB180327), penicillin-streptomycin sulfate double resistant mixture (100× ) […]
# Leibovitz's L-15 medium (PM151010), Wuhan Punosai Life Technology Co., LTD.
# CCK-8 Kit, Biosharp life sciences; Trypsin-edta Digestive Solution (05200-056), GIBCO; Cellular DMSO (D2650 -100ML), SIGMA; 96-well cell culture plate, Corning Life Sciences (Wujiang) Co., LTD. 25, 75cm2 cell culture bottle, Corning Life Sciences (Wujiang) Co., LTD. Blood cell counting plate, Shanghai Qiujing Biochemical Reagent Instrument Co., LTD. Cisplatin (D8810), Solarbio life sciences;
# Instruments and equipment
# Super clean workbench (sw-cj-2fd), Sujing Aetna; Microscope (nib -100), Ningbo Yongxin Optical Co., Ltd; Carbon dioxide cell incubator (MCO -18AC), Phcbi; Electric constant temperature water bath pot (HWS -24), Shanghai Yiheng Technology Co., Ltd; Multifunctional microplate reader (Multiskan MK3), Thermo; One ten-thousandth balance (MS105DU), METTLER; Centrifuge (TD4N), ChangshaYingtai Instrument Co., Ltd; Mixer (SCI-VS), Selo Czech Republic, USA.
# The samples were dissolved in the cell -grade DMSO after accurately weighing to generate the 10 mM drug solution. The drug solution was further diluted to tenfold detection concentration by cell culture medium.
# Standard Operation Procedure
# Detection principle of cytotoxicity (CCK -8 method):
# The detection principle is that the CCK-8 reagent contains WST-8, which is reduced S52 to a highly water-soluble yellow methyl product (formazan) by dehydrogenase in the cell mitochondria under the action of electron carrier 1-methoxy-5-methylphenazine dimethyl sulfate (1-methoxy PMS). The number of the nail products produced is directly proportional to the number of living cells.
# (1) Inoculate cells: The cells were prepared into single cell suspension with the culture medium containing 10% fetal bovine serum, and the 96 well plates were inoculated with 90 uL cell culture medium (Adherent cell viewed 5×10^4/mL and Suspension cell viewed 9×10^4/mL) per well, then cultured at 5% CO2 and 37 ℃ for 24 hours.
# (2) Add the sample solution to be tested: Add 10 µL sample solution to each well. One concentration was set for each sample during preliminary screening and three multiple holes were set for each concentration. Eight concentration gradients were set for each sample for IC50 determination and three multiple holes were set for each concentration.
# The 96 well plates were cultured at 5% CO2 and 37 ℃ for 48 hours. The experiment was divided into a blank group, control group and drug group.
# (3) Color development: The old culture medium and drug solution of adherent cells were sucked out, then 100 µL of CCK-8 solution (diluted ten times with the basic medium) was added and the suspension cells were directly added 10 µL of CCK-8 stock solution. Culture at 37 ℃ with 5% CO2 for 1-4 h (dark operation, real-time observation).
# (4) Result detection: The absorbance was measured at 450 nm with an enzyme labeling instrument and the original data and results were recorded.
# (5) The toxicity is expressed by cell inhibition, and the calculation formula is as follows:
# Cell inhibition (%) = (ODControl-ODDrug) / (ODControl-ODBlank)×100%. The IC50 was calculated by the software graphpad prism 8 (version 8.0.2, from GraphPad SoftwareInc)，and the experimental results are expressed in ± SD.
# 6) Positive control: Cisplatin.
# [2] = Cys-Lys stapling of unprotected peptides with unsymmetrical linker (1.5 equiv): Cys thiol displaces phthalimide from N-thiophthalimide (disulfide, ~1 min), then ring closure by Lys amine attack on pentafluorophenyl ester with DIPEA (4 equiv); conditions: the molecule shown is the open-chain precursor, CH3CN:H2O 3:1, 25.0 °C, 0.167 h
smiles,measurement,setting,value
CC(=O)N[C@H](C(=O)N[C@@H](CO)C(=O)N[C@@H](Cc1ccccc1)C(=O)N[C@H]1CCCCNC(=O)COC/C(Cl)=C\SSC[C@@H](C(=O)N[C@@H](CC(C)C)C(=O)N[C@@H](CC(C)C)C(=O)N[C@@H](CO)C(=O)N[C@@H](CCCNC(=N)N)C(N)=O)NC(=O)[C@H](Cc2c[nH]c3ccccc23)NC(=O)[C@H](Cc2ccc(O)cc2)NC(=O)[C@H](CCC(N)=O)NC1=O)[C@@H](C)O [Peptide 5m],IC50,[1],21.7 µM
CC(=O)N[C@H](C(=O)N[C@@H](CO)C(=O)N[C@@H](Cc1ccccc1)C(=O)N[C@@H](CCCCN)C(=O)N[C@@H](CCC(N)=O)C(=O)N[C@@H](Cc1ccc(O)cc1)C(=O)N[C@@H](Cc1c[nH]c2ccccc12)C(=O)N[C@@H](CSS/C(=C/Cl)CCOc1ccccc1C(=O)Oc1c(F)c(F)c(F)c(F)c1F)C(=O)N[C@@H](CC(C)C)C(=O)N[C@@H](CC(C)C)C(=O)N[C@@H](CO)C(=O)N[C@@H](CCCNC(=N)N)C(N)=O)[C@@H](C)O,"ring closure, isolated yield",[2]; 28-membered ring,82%
CC(=O)N[C@H](C(=O)N[C@@H](CO)C(=O)N[C@@H](Cc1ccccc1)C(=O)N[C@@H](CCCCN)C(=O)N[C@@H](CCC(N)=O)C(=O)N[C@@H](Cc1ccc(O)cc1)C(=O)N[C@@H](Cc1c[nH]c2ccccc12)C(=O)N[C@@H](CSS/C(=C/Cl)CCCCC(=O)Oc1c(F)c(F)c(F)c(F)c1F)C(=O)N[C@@H](CC(C)C)C(=O)N[C@@H](CC(C)C)C(=O)N[C@@H](CO)C(=O)N[C@@H](CCCNC(=N)N)C(N)=O)[C@@H](C)O,"ring closure, isolated yield",[2]; 27-membered ring,76%
CC(=O)N[C@@H](CCC(N)=O)C(=O)N[C@@H](CO)C(=O)N[C@@H](CCC(N)=O)C(=O)N[C@@H](CCC(N)=O)C(=O)N[C@H](C(=O)N[C@@H](Cc1ccccc1)C(=O)N[C@@H](CSS/C(=C/Cl)CCOc1cccc(C(=O)Oc2c(F)c(F)c(F)c(F)c2F)c1)C(=O)N[C@@H](CC(N)=O)C(=O)N[C@@H](CC(C)C)C(=O)N[C@@H](Cc1c[nH]c2ccccc12)C(=O)N[C@@H](CCCNC(=N)N)C(=O)N[C@@H](CC(C)C)C(=O)N[C@@H](CC(C)C)C(=O)N[C@@H](CCCCN)C(=O)N[C@@H](CCC(N)=O)C(=O)N[C@@H](CC(N)=O)C(N)=O)[C@@H](C)O,"ring closure, isolated yield",[2]; 38-membered ring,85%
C[C@H](NC(=O)[C@H](C)NC(=O)[C@@H](N)CCCCN)C(=O)N[C@@H](C)C(=O)N[C@@H](CSS/C(=C/Cl)CCC(=O)Oc1c(F)c(F)c(F)c(F)c1F)C(=O)N[C@@H](Cc1ccccc1)C(N)=O [H-Lys-Ala-Ala-Ala-Cys(S-linker 3a-OPfp)-Phe-NH2],"ring closure, isolated yield",[2]; 25-membered ring,68%
CC(=O)N[C@H](C(=O)N[C@@H](CO)C(=O)N[C@@H](Cc1ccccc1)C(=O)N[C@H]1CCCCNC(=O)c2cccc(c2)OCC/C(Cl)=C\SSC[C@@H](C(=O)N[C@@H](CC(C)C)C(=O)N[C@@H](CC(C)C)C(=O)N[C@@H](CO)C(=O)N[C@@H](CCCNC(=N)N)C(N)=O)NC(=O)[C@H](Cc2c[nH]c3ccccc23)NC(=O)[C@H](Cc2ccc(O)cc2)NC(=O)[C@H](CCC(N)=O)NC1=O)[C@@H](C)O [Peptide 5q],IC50,[1],22.4 µM
CC(=O)N[C@@H](CCCCN)C(=O)N[C@@H](C)C(=O)N[C@@H](C)C(=O)N[C@@H](C)C(=O)N[C@@H](CSS/C(=C/Cl)CCCC(=O)Oc1c(F)c(F)c(F)c(F)c1F)C(=O)N[C@@H](Cc1ccccc1)C(N)=O [Ac-Lys-Ala-Ala-Ala-Cys(S-linker 3b-OPfp)-Phe-NH2],"ring closure, isolated yield",[2]; 26-membered ring,76%
CC(=O)N[C@@H](CCCCN)C(=O)N[C@@H](C)C(=O)N[C@@H](C)C(=O)N[C@@H](C)C(=O)N[C@@H](CSS/C(=C/Cl)CCCCC(=O)Oc1c(F)c(F)c(F)c(F)c1F)C(=O)N[C@@H](Cc1ccccc1)C(N)=O [Ac-Lys-Ala-Ala-Ala-Cys(S-linker 3c-OPfp)-Phe-NH2],"ring closure, isolated yield",[2]; 27-membered ring,79%
CC(=O)N[C@H](C(=O)N[C@@H](CO)C(=O)N[C@@H](Cc1ccccc1)C(=O)N[C@H]1CCCCNC(=O)c2ccccc2OCC/C(Cl)=C\SSC[C@@H](C(=O)N[C@@H](CC(C)C)C(=O)N[C@@H](CC(C)C)C(=O)N[C@@H](CO)C(=O)N[C@@H](CCCNC(=N)N)C(N)=O)NC(=O)[C@H](Cc2c[nH]c3ccccc23)NC(=O)[C@H](Cc2ccc(O)cc2)NC(=O)[C@H](CCC(N)=O)NC1=O)[C@@H](C)O [Peptide 5p],IC50,[1],14.9 µM
CC(=O)N[C@@H](CCC(N)=O)C(=O)N[C@@H](CO)C(=O)N[C@@H](CCC(N)=O)C(=O)N[C@@H](CCC(N)=O)C(=O)N[C@H](C(=O)N[C@@H](Cc1ccccc1)C(=O)N[C@@H](CSS/C(=C/Cl)CCCCCC(=O)Oc1c(F)c(F)c(F)c(F)c1F)C(=O)N[C@@H](CC(N)=O)C(=O)N[C@@H](CC(C)C)C(=O)N[C@@H](Cc1c[nH]c2ccccc12)C(=O)N[C@@H](CCCNC(=N)N)C(=O)N[C@@H](CC(C)C)C(=O)N[C@@H](CC(C)C)C(=O)N[C@@H](CCCCN)C(=O)N[C@@H](CCC(N)=O)C(=O)N[C@@H](CC(N)=O)C(N)=O)[C@@H](C)O,"ring closure, isolated yield",[2]; 37-membered ring,78%
CC(=O)N[C@H](C(=O)N[C@@H](CO)C(=O)N[C@@H](Cc1ccccc1)C(=O)N[C@H]1CCCCNC(=O)CC/C(=C\Cl)SSC[C@@H](C(=O)N[C@@H](CC(C)C)C(=O)N[C@@H](CC(C)C)C(=O)N[C@@H](CO)C(=O)N[C@@H](CCCNC(=N)N)C(N)=O)NC(=O)[C@H](Cc2c[nH]c3ccccc23)NC(=O)[C@H](Cc2ccc(O)cc2)NC(=O)[C@H](CCC(N)=O)NC1=O)[C@@H](C)O [Peptide 5k],IC50,[1],14.6 µM
CC[C@H](C)[C@H](NC(=O)[C@@H]1CCCN1C(=O)[C@H](CSS/C(=C/Cl)CCOc1ccc(C(=O)Oc2c(F)c(F)c(F)c(F)c2F)cc1)NC(C)=O)C(=O)N[C@@H](CCSC)C(=O)N[C@@H](CCC(=O)O)C(=O)N[C@@H](CC(=O)O)C(=O)N[C@@H](CCCNC(=N)N)C(=O)N[C@@H](CCCCN)C(=O)N1CCC[C@H]1C(N)=O [Ac-Cys(S-linker 3m-OPfp)-Pro-Ile-Met-Glu-Asp-Arg-Lys-Pro-NH2],"ring closure, isolated yield",[2]; 39-membered ring,62%
CC(=O)N[C@H](C(=O)N[C@@H](CO)C(=O)N[C@@H](Cc1ccccc1)C(=O)N[C@@H](CCCCN)C(=O)N[C@@H](CCC(N)=O)C(=O)N[C@@H](Cc1ccc(O)cc1)C(=O)N[C@@H](Cc1c[nH]c2ccccc12)C(=O)N[C@@H](CSS/C(=C/Cl)CCCC(=O)Oc1c(F)c(F)c(F)c(F)c1F)C(=O)N[C@@H](CC(C)C)C(=O)N[C@@H](CC(C)C)C(=O)N[C@@H](CO)C(=O)N[C@@H](CCCNC(=N)N)C(N)=O)[C@@H](C)O,"ring closure, isolated yield",[2]; 26-membered ring,85%
